# Patent US20240117385A1, “ENZYMES OF LUCIFERIN BIOSYNTHESIS AND USE THEREOF” (LIGHT BIO, INC., priority 2018, published 2024)
# How the values were obtained:
# [1] = test system: HEK293NT cells; test: Luminescence of HEK293NT cells expressing hispidin hydroxylase and luciferase on adding hispidin; type: cell-based, human; details: hispidin 800 μg/ml, 24 hours after transfection
# [2] = test system: Physcomitrella patens moss; test: Bioluminescence of transgenic moss gametophytes soaked in hispidin; type: in vivo; details: hispidin 900 μg/ml in BCD medium
# Source text: Coding sequences of Neonothopanus nambi hispidin hydroxylase and luciferase were optimized for expression in Physcomitrella patens moss cells. Then, in silico there was created an expression cassette comprising promoter of rice aktI gene, human cytomegalovirus 5′-untranslated region coding hispidin hydroxylase sequence optimized for expression in plant cells (SEQ ID NO 103), terminating codon, Agrobacterium osc gene terminator sequence, rice ubiquitin promoter, coding sequence of Neonothopanus nambi luciferase (SEQ ID NO 112) optimized for expression in moss cells, Agrobacterium tumefaciens nos gene terminator.
# The obtained sequence was synthesized in such a way, that all said fragments appeared to be operatively cross-linked to each other, and cloned by Gibson assembly technique [Gibson et al., Nat Methods, 2009, 6:343-5] into expression vector pLand #1 (Institut Jean-Pierre Bourgin, France), between DNA fragments coincident with locus of Physcomitrella patens moss genomic DNA between sequences of highly expressed moss genes Pp3c16_6440 V3.1 and Pp3c16_6460 V3.1. The vector pLand #1 also comprised a guide RNA (sgRNA) sequence for Cas9 nuclease, complementary to the region of the same DNA locus. […]
# The obtained moss gametophytes were soaked in BCD medium comprising hispidin at concentration of 900 μg/ml, and analyzed by means of IVIS Spectrum In Vivo Imaging System (Perkin Elmer).
# [3] = test system: Neonothopanus nambi hispidin hydroxylase and luciferase; test: Bioluminescence reaction of biosynthetic hispidin; type: biochemical; details: hispidin purified from fermenter medium by HPLC
# Protocol: The obtained E. coli strain was used for producing hispidin. At the first step the bacteria were incubated in five 50 ml plastic tubes in LB medium within 10 hours at 200 rpm fluctuation at 37° C. 250 ml of the obtained culture were added to 3.3 litres of fermentation medium into a fermenter Biostat B5 (Braun, Germany) so that initial culture optical density at 600 nm was about 0.35. Fermentation medium comprised 10 g/l of peptone, 5 g/l of caffeic acid, 5 g/l of yeast extract, 10 g/l of NaCl, 25 g/l of glucose, 15 g/l of (NH4)2SO4, 2 g/l of KH2PO4, 2 g/l of MgSO4·7 H2O, 14.7 mg/l of CaCl2), 0.1 mg/l of thiamine, 1.8 mg/l and 0.1% of the solution composed of: EDTA 8 mg/l, CoCl2·6 H2O 2.5 mg/l, MnCl2·4H2O 15 mg/l, CuCl2·2H2O 1.5 mg/l, H3BO3 3 mg/l, Na2MoO4·2H2O 2.5 mg/l, Zn(CH3COO)2·2H2O 13 mg/l, iron (III) citrate 100 mg/l, thiamine hydrochloride 4.5 mg/l. Fermentation was carried out at 37° C., with 3 l/min aeration and 200 rpm mixing. After 25 hours of cultivation arabinose was added to the culture up to final concentration of 0.1 mM. pH was automatically controlled by adding of NH4OH, […] pH to 7.0. […]
smiles,measurement,setting,value
"O=c1cc(O)cc(/C=C/c2ccc(O)c(O)c2)o1 [hispidin, (E)-6-(3,4-dihydroxystyryl)-4-hydroxy-2H-pyran-2-one]",luminescence intensity exceeding the signal from untransfected control cells,[1],more than by two orders of magnitude
same,bioluminescence intensity exceeding the signal of control plants expressing luciferase only,[2],minimum by two orders of magnitude
same,activity in bioluminescence reaction,[3],active in bioluminescence reaction
